According to patent publication US10125097B2, “1- [1-(benzoyl)-pyrrolidine-2-carbonyl]-pyrrolidine-2-carbonitrile derivatives” (UNIVERSITAT DE BARCELONA, priority 2012, dated 2018):

Tests used:
[1] = Parallel artificial membrane permeability assay (PAMPA); assay type: in vitro ADME; details: 200 μM initial concentration, pH 7.4, 4 hours, room temperature
Experimental: Parallel artificial membrane permeability assay (PAMPA) described in Kansy M et al., J. Med. Chem. 1998; 41(7):1007-10 was used to determine the capacity of compounds to cross the Blood-Brain Barrier (BBB) by passive diffusion (Di L et al., Eur. J. Med. Chem. 2003; 38(3):223-32). The effective permeability (Pe) of the compounds was measured at an initial concentration of 200 μM. The buffer solution was prepared from a commercial concentrated one following the manufacturer's instructions. pH was adjusted to 7.4 using a 0.5 M NaOH solution. A stock solution of new compound was prepared in DMSO and diluted with buffer solution to a final 200 μM concentration (0.5% DMSO content). The PAMPA sandwich was separated and each donor well was filled with 200 μL of the compound solution. The acceptor plate was placed into the donor plate, ensuring that the underside of the membrane was in contact with buffer. 4 μL of the mixture of phospholipids (20 mg/mL) in dodecane was added to the filter of each well, and 200 μL of buffer solution was added to the each acceptor well. The plate was covered and incubated at room temperature in a saturated humidity atmosphere for 4 hours under orbital agitation at 100 rpm. After 4 hours, the contents of the acceptor and donor compartments were analyzed by HPLC: 150 μL of each well from the donor plate and 150 μL of each well from the acceptor plate were transferred to HPLC vials, injecting each sample into a reverse-phase C18 column (150 mm×4.6 mm×5 μm, 100 Å) (100 μL/injection from the acceptor wells, 10 μL/injection from the donor wells and for t0 references). Transport was also confirmed by MALDI-TOF spectrometry.
The phospholipid mixture used was a porcine polar brain lipid extract, provided by Avanti polar lipids, with the following composition: 12.6% phosphatidylcholine (PC), 33.1% phosphatidylethanolamine (PE), 18.5% phosphatidylserine (PS), 4.1% phosphatidylinositol (PI), 0.8% phosphatidic acid and 30.9% of other compounds.
The effective permeability (Pe) after 4 hours was calculated using equation 2 and the percentage of transport was calculated using equation 3:
[formula] wherein: t is time (h) CA(t) is the compound concentration in the acceptor well at time t and CD(to) is the compound concentration in the donor well at to.

MK-801-treated rodents = test: Novel object recognition (NOR) task in MK-801 cognition impairment model; assay type: in vivo, rodents (mice or rats); details: 5 mg/Kg s.c.; MK-801 0.2 mg/kg i.p.; FIG. 1
Experimental: The new compounds were evaluated for their efficacy as cognition enhancers in a pharmacological model for cognitive impairment. The effects of the new compounds were evaluated in untreated and MK-801-treated rodents (mice or rats). MK-801 is a non-competitive antagonist of the N-Methyl-D-aspartate (NMDA) receptor which impairs animal performance in various learning and memory paradigms (Castellano C et al., Curr. Drug Targets 2001; 2:273-83; Riedel G et al., Behav. Brain Res. 2003; 140:1-47). MK-801 also produces various effects on rodent behavior, including deficits in sensory processing, hypermotility, stereotypy and ataxia. […]
The novel object recognition (NOR) task is based on the natural preference of rodents to explore novel objects (Ennaceur A et al., Behav. Brain Res. 1988; 31:47-59). […] The animals were then allowed to explore freely for 10 min, and the time spent exploring each object was recorded. […] An index of discrimination was calculated as follows: time spent exploring the new object minus time spent exploring the old object, divided by the total time exploring both objects, and multiplied by 100. […]

- % T (percentage of transport) [1]: 29.92%
- Papp at 4 h, 200 μM ([1]; PAMPA, read-out: Effective permeability Pe): 22.1 ×10⁻⁶ cm/s
Compound: COc1cc(C(=O)N2CC(F)(F)C[C@H]2C(=O)N2CCC[C@H]2C#N)cc(OC)c1OCc1ccccc1 [Example 4, (S)-1-((2S)-1-(4-(benzyloxy)-3,5-dimethoxybenzoyl)-4,4-difluoropyrrolidine-2-carbonyl)pyrrolidine-2-carbonitrile]
- Reversal of MK-801-induced memory impairment in the NOR test (MK-801-treated rodents): able to reverse MK-801-induced memory impairment
